Reference: article PMC7684578, “Isopedopeptins A–H: Cationic Cyclic Lipodepsipeptides from Pedobacter cryoconitis UP508 Targeting WHO Top-Priority Carbapenem-Resistant Bacteria” (ACS Chemical Biology, 2020)
≈ marks a conversion by molar mass, not a printed value. Starred links: 1 amine or outer side, 2 acyl side, 3 side chain; linkers in the order of their positions; H or OH if unused. Positions of bridges follow the written chain, without caps; N, C: chain ends. Non-standard residues stand in square brackets, D forms with d. Residues, ends and D or L forms follow the SMILES beside them. X4 = CC(C)CCC=CCCC[C@H](CC(=O)[*:1])O[*:2]; X6 = CC(C)CCCCC=CC[C@H](CC(=O)[*:1])O[*:2]; X5 = CC(C)CCCCCCC[C@H](CC(=O)[*:1])O[*:2]; X3 = CC(C)CCCCC[C@H](CC(=O)[*:1])O[*:2]; X7 = CCCCCCC=CC[C@H](CC(=O)[*:1])O[*:2]; X2 = CCCCCCC[C@H](CC(=O)[*:1])O[*:2]; Val(3-OH) = CC(C)(O)[C@H](N)C(=O)O; X1 = C/C=C(/N[*:1])C(=O)[*:2]; Dab = NCC[C@H](N)C(=O)O; Dap = NC[C@H](N)C(=O)O

Test system: K. pneumoniae LMG20218
Assay: MIC, broth micro-dilution, primary panel
Format: cell-based, Klebsiella pneumoniae
Details: for MIC K. pneumoniae LMG20218: ESBL; for MIC: Klebsiella pneumoniae, LMG20218, ESBL
Procedure: Isopedopeptin E (5): off-white solid; [α] D20 –36° (c 0.3 in methanol); UV (MeOH) λ max (log10 ε) 240 (3.8); 1H NMR (DMSO-d 6, 600 MHz), see Table S5; 13C NMR (DMSO-d 6, 150 MHz), see Table […]
Isopedopeptin F (6): off-white solid; [α] D20 –32° (c 0.05 in methanol); UV (MeOH) λ max (log10 ε) 240 (3.8); 1H NMR (DMSO-d 6, 600 MHz), see Table S6; 13C NMR (DMSO-d 6, 150 MHz), see Table […]
Isopedopeptin G (7): off-white solid; [α] D20 –49° (c 0.1 in methanol); UV (MeOH) λ max (log10 ε) 240 (4.0); 1H NMR (DMSO-d 6, 600 MHz), see Table S7; 13C NMR (DMSO-d 6, 150 MHz), see Table […]
Isopedopeptin H (8): off-white solid; [α] D20 –56° (c 0.2 in methanol); UV (MeOH) λ max (log10 ε) 240 (4.0); 1H NMR (DMSO-d 6, 600 MHz), see Table S8; 13C NMR (DMSO-d 6, 150 MHz), see Table […]
Minimal Inhibitory Concentration (MIC) against the primary panel of microorganisms.
The MIC for compounds 1–8 was measured by means of a broth micro-dilution method in 96-wells microtiter plates with the addition of E. coli LMG15862, LMG1041 T, E. cloacaeA. baumannii […]
H-29 and A. fumigatus J7, as test organisms. The test media were AM3 Broth (BD Difco Ltd) mixed with phosphate buffered saline (PBS, Amresco LLC, Solon, USA) in 1:4 ratio (E. coli, A. baumannii, E. cloacae, K. pneumoniae and P. aeruginosa), AM3 Broth mixed with PBS in 1:1 ratio (S. aureus), ME (A. fumigatus) and ISP2 (C. albicans). Prior to MIC determination, the cell concentration of tested bacterial/fungal pathogens was adjusted to ≅ 4 × 10^5 CFU/mL (acceptable range 2 – 6 × 10^5 CFU/mL). Cell concentration was confirmed by colony counting after diluting and plating the respective bacterial pathogen on VPA plates [VPA, 10 g Vegetable Peptone Broth (Oxoid Ltd., Basingstoke,UK), 15 g Bacto Agar (Difco Ltd, Tyrone) in 1 L deionised water] directly after each of MIC-tests. The cells of C. albicans were plated on ISP2 agar plates [ISP2, 15 g Bacto Agar (Difco Ltd) in 1 L deionised water] and respectively spores of A. fumigatus were plated on MEA plates.
Plates were, subsequently, incubated at 37 °C in the dark, and viable colonies counted after 16 to 24 h.
To estimate MIC values (concentration range between 0.05 and 50 µg/mL), solutions of the tested compounds (100, 10 and 1 and if needed 0.1 µg/mL in MeOH) were dispensed into wells of microtiter plate(s) and the solvent was evaporated in a fume-hood. Subsequently, suspensions of pathogen cells in the appropriate medium were dispensed to the wells of microtiter plates and the growth of pathogens were observed after 16 to 20 h of incubation at 37 °C in the dark. Positive controls were the respective pathogen cells suspended in untreated sterile media without addition of compounds(s) and negative controls were the media only. MIC values were defined as the lowest concentration of each compound with no visible growth of pathogen. All MIC tests were performed in triplicate and […]
MIC determination for compound 2 against an extended panel of bacterial strains.
Compound 2 was evaluated against a panel of Gram-negative bacteria (Hughes strain collection), including: A. baumannii ATCC 19606, wild-type; BM4454, multidrug-resistant clinical isolate; BM4652, efflux-defective derivative of BM4454; CH9622, colistin-resistant clinical isolate; E. coli ATCC 25922, wild-type; CH3130, efflux-defective ΔtolC mutant isogenic to ATCC 25922; D22, a drug-hypersensitive lpxC mutant of E. coli; CH3491, multidrug-resistant clinical isolate; CH9623 and CH9624, colistin-resistant clinical isolates carrying mcr-1; K. pneumoniae ATCC 13833, wild-type; […]
clinical isolate; CH9625 and CH9626, colistin-resistant clinical isolates; P. aeruginosa PAO1, wild-type; PAO750, efflux-defective mutant isogenic to PAO1. The in vitro antimicrobial activity of each compound was determined by measuring the MIC value using the broth micro-dilution technique in cation-adjusted Mueller-Hinton II broth (Becton-Dickinson, 212322) according to EUCAST and CLSI guidelines. Each compound prepared in MHII medium was dispensed into a 96-well round- […]

| SMILES | MIC K. pneumoniae LMG20218 | MIC |
| --- | --- | --- |
| C/C=C1/NC(=O)[C@H](CCN)NC(=O)[C@H](CC(C)C)NC(=O)[C@H](CN)NC(=O)C[C@@H](CCCC=CCCC(C)C)OC(=O)[C@H](CC(=O)O)NC(=O)[C@H](C(C)C)NC(=O)[C@@H](Cc2ccccc2)NC(=O)[C@H](CN)NC(=O)[C@H]([C@@H](C)O)NC1=O [Compound 7, Isopedopeptin G] ([Dap]L[Dab][X1]T[Dap][dF]VD; linker N-C via X4) | 16 µg/mL (≈ 14 µM) | 8 to 16 µg/mL (≈ 7.01 to 14 µM) |
| C/C=C1/NC(=O)[C@H](CCN)NC(=O)[C@H](CC(C)C)NC(=O)[C@H](CN)NC(=O)C[C@@H](CCCCCC(C)C)OC(=O)[C@H](CC(=O)O)NC(=O)[C@H](C(C)(C)O)NC(=O)[C@@H](Cc2ccccc2)NC(=O)[C@H](CN)NC(=O)[C@H]([C@@H](C)O)NC1=O [Compound 1, cyclo(3-hydroxy-9-methyldecanoyl-DAPA1-Leu-DABA-ABA-Thr-DAPA2-Phe-OHVal-Asp)] ([Dap]L[Dab][X1]T[Dap][dF][Val(3-OH)]D; linker N-C via X3) | 8 µg/mL (≈ 7.07 µM) | 8 to 16 µg/mL (≈ 7.07 to 14.1 µM) |
| C/C=C1/NC(=O)[C@H](CCN)NC(=O)[C@H](CC(C)C)NC(=O)[C@H](CN)NC(=O)C[C@@H](CCCCCCC)OC(=O)[C@H](CC(=O)O)NC(=O)[C@H](C(C)C)NC(=O)[C@@H](Cc2ccccc2)NC(=O)[C@H](CN)NC(=O)[C@H]([C@@H](C)O)NC1=O [Compound 4, isopedopeptin D] ([Dap]L[Dab][X1]T[Dap][dF]VD; linker N-C via X2) | – | > 32 µg/mL |
| C/C=C1/NC(=O)[C@H](CCN)NC(=O)[C@H](CC(C)C)NC(=O)[C@H](CN)NC(=O)C[C@@H](CCCCCC(C)C)OC(=O)[C@H](CC(=O)O)NC(=O)[C@H](C(C)C)NC(=O)[C@@H](Cc2ccccc2)NC(=O)[C@H](CN)NC(=O)[C@H]([C@@H](C)O)NC1=O [Compound 5, Isopedopeptin E] ([Dap]L[Dab][X1]T[Dap][dF]VD; linker N-C via X3) | – | 32 µg/mL (≈ 28.7 µM) |
| C/C=C1/NC(=O)[C@H](CCN)NC(=O)[C@H](CC(C)C)NC(=O)[C@H](CN)NC(=O)C[C@@H](CCCCCCCC(C)C)OC(=O)[C@H](CC(=O)O)NC(=O)[C@H](C(C)(C)O)NC(=O)[C@@H](Cc2ccccc2)NC(=O)[C@H](CN)NC(=O)[C@H]([C@@H](C)O)NC1=O [Compound 6, Isopedopeptin F] ([Dap]L[Dab][X1]T[Dap][dF][Val(3-OH)]D; linker N-C via X5) | – | 32 µg/mL (≈ 27.6 µM) |
| C/C=C1/NC(=O)[C@H](CCN)NC(=O)[C@H](CC(C)C)NC(=O)[C@H](CN)NC(=O)C[C@@H](CC=CCCCCCC)OC(=O)[C@H](CC(=O)O)NC(=O)[C@H](C(C)(C)O)NC(=O)[C@@H](Cc2ccccc2)NC(=O)[C@H](CN)NC(=O)[C@H]([C@@H](C)O)NC1=O [Compound 3, isopedopeptin C] ([Dap]L[Dab][X1]T[Dap][dF][Val(3-OH)]D; linker N-C via X7) | – | 32 µg/mL (≈ 28 µM) |
| C/C=C1/NC(=O)[C@H](CCN)NC(=O)[C@H](CC(C)C)NC(=O)[C@H](CN)NC(=O)C[C@@H](CC=CCCCCC(C)C)OC(=O)[C@H](CC(=O)O)NC(=O)[C@H](C(C)C)NC(=O)[C@@H](Cc2ccccc2)NC(=O)[C@H](CN)NC(=O)[C@H]([C@@H](C)O)NC1=O [Compound 8, Isopedopeptin H] ([Dap]L[Dab][X1]T[Dap][dF]VD; linker N-C via X6) | – | 16 µg/mL (≈ 14 µM) |
| C/C=C1/NC(=O)[C@H](CCN)NC(=O)[C@H](CC(C)C)NC(=O)[C@H](CN)NC(=O)C[C@@H](CCCCCCC)OC(=O)[C@H](CC(=O)O)NC(=O)[C@H](C(C)(C)O)NC(=O)[C@@H](Cc2ccccc2)NC(=O)[C@H](CN)NC(=O)[C@H]([C@@H](C)O)NC1=O [Compound 2, isopedopeptin B] ([Dap]L[Dab][X1]T[Dap][dF][Val(3-OH)]D; linker N-C via X2) | 16 µg/mL (≈ 14.3 µM) | 8 to 16 µg/mL (≈ 7.16 to 14.3 µM) |
